Laboratory results taken from patent publication US8129197B2, “Cholesterol loaded insect cell membranes as test proteins” (SOLVO Biotechnológial ZRT., priority 2006, dated 2012).
Where a chain is given by its changes, count along the chain named. Where two headings read alike, the source gives them in different places.

Key:
humanBSEP = humanBSEP (Homo sapiens, UniProt O95342)
Procedure: (§1) Measurement of the vesicular transport activity in case of Bsep: The transport activity measurements were carried out with purified membrane vesicles containing human, rat or mouse Bsep (ABCB11, sPgp) transporter isolated from baculovirus infected Sf9 (Spodoptera frugiperda)cells. The membrane preparations contain 5-16% closed, inside-out oriented, membrane vesicles. The transporter pumps the molecules inside of these vesicles. The vesicles can be separated by rapid filtration of the membrane suspension through a glass filter or through a nitrocellulose membrane (using vacuum).
(§2) The quantitative determination of the transported molecule can be done in several ways, like: HPLC, LC/MS, but also fluorescent or radioactive labeling is also suitable. Tritium labeled substrates were used in the assays and the mode of detection was liquid-scintillation.
(§3) Assay Design and Main Steps for Bsep • Prepare an appropriate concentration of membrane suspension in assay buffer; add the unlabeled and ^3H-labeled substrates to the suspension.

mouseBsep = biological target: T1, mouseBsep (Mus musculus, UniProt Q9QY30)
T1 sequence (Q9QY30 1-1321): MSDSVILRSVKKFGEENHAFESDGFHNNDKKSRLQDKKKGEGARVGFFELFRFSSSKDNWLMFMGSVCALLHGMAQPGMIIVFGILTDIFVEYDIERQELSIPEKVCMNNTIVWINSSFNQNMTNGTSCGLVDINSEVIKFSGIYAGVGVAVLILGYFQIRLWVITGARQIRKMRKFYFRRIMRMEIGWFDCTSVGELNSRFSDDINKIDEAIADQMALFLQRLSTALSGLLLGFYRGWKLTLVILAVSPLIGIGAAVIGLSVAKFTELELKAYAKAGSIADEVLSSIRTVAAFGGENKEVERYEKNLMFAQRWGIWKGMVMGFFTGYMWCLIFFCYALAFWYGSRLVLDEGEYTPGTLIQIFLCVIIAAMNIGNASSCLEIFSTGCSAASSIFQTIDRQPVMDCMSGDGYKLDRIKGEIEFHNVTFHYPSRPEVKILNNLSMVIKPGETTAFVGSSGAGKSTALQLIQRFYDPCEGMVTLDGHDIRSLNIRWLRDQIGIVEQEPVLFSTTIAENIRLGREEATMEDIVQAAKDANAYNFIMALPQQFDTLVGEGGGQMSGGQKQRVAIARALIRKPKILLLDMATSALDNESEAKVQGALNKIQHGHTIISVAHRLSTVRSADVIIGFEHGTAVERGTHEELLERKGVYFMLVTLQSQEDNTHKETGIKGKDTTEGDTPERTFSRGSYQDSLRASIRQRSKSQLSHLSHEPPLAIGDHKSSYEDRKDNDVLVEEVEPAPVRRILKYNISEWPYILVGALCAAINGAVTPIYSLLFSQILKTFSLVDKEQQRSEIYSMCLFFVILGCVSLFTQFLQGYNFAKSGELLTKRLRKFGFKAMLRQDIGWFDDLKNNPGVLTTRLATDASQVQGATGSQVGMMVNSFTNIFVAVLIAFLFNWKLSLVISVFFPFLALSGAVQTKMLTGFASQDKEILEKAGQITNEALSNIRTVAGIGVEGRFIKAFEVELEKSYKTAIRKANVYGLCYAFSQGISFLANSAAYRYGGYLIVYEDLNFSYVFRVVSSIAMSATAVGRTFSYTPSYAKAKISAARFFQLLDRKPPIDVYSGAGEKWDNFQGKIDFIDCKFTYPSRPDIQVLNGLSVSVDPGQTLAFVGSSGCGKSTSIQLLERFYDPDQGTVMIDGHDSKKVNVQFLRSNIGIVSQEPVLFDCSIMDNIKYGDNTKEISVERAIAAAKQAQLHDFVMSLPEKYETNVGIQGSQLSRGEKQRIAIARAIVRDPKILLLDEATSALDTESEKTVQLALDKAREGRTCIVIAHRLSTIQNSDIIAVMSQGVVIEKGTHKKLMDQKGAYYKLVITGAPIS
Procedure: as §1, §2, §3

ratBsep = ratBsep (Rattus norvegicus, UniProt O70127)
Sequence of ratBsep (O70127 whole entry): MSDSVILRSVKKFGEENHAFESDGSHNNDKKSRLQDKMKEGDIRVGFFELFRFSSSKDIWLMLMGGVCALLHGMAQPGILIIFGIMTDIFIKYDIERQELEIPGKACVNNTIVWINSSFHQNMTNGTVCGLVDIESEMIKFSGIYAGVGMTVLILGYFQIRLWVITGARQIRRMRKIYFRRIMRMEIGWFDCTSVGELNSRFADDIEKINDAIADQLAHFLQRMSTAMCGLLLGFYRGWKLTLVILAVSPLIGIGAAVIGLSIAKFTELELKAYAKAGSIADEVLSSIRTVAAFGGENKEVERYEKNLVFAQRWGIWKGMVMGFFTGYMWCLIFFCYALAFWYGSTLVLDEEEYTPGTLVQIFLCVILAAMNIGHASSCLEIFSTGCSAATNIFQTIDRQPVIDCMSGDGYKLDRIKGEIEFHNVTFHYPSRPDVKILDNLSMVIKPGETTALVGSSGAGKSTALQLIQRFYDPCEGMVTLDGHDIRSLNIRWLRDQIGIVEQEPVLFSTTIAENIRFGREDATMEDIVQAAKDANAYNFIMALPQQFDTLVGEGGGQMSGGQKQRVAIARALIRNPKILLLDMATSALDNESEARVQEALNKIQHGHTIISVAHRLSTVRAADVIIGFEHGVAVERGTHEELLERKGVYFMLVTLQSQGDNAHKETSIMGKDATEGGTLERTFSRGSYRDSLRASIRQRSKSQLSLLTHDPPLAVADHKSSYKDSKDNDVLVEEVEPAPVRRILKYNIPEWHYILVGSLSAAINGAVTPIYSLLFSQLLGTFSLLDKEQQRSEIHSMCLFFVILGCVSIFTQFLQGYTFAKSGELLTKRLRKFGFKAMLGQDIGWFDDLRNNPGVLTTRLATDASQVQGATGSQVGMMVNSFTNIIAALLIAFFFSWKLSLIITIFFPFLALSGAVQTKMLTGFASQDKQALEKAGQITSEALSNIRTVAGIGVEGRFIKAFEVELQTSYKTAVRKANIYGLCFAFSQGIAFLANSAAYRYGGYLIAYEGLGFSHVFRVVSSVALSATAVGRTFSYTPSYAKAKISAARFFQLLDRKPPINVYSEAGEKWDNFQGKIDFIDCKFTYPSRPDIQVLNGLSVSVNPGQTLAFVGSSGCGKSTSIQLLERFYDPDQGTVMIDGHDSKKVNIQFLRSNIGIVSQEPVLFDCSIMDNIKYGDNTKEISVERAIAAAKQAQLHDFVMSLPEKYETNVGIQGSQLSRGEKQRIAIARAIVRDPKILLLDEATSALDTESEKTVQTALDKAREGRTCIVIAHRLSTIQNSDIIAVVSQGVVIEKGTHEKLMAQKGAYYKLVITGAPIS
Procedure: as §1, §2, §3

wild-type ABCG2 [1] = biological target: T2, wild-type ABCG2 (Homo sapiens, UniProt Q9UNQ0); assay: Vesicular transport assay, inside-out ABCG2-Sf9 membrane vesicles
T2 sequence (Q9UNQ0 1-655): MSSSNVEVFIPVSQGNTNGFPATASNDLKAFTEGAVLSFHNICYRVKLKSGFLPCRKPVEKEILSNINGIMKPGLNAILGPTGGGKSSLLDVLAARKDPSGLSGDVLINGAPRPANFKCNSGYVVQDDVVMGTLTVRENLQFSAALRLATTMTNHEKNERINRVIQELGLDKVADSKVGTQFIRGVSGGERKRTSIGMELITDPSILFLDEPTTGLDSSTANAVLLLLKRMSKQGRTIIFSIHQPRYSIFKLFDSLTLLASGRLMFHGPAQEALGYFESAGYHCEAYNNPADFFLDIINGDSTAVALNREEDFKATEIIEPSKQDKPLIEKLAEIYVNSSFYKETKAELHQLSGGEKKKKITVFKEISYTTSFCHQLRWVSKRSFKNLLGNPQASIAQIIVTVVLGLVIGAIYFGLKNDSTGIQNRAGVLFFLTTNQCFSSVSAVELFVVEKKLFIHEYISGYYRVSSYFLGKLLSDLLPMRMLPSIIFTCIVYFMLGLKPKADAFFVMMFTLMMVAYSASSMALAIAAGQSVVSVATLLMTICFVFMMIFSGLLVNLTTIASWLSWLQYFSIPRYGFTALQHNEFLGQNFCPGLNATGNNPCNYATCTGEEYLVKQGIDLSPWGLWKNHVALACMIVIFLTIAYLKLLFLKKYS
Procedure: Measurement of the vesicular transport activity: The transport activity measurements were carried out with purified membrane vesicles containing ABCG2 or Bsep isolated from baculovirus infected Sf9 (Spodoptera frugiperda) cells or mammalian (ABCG2-M) cells. The membrane preparations contain 5-16% closed, inside-out oriented, membrane vesicles. The transporter pumps the molecules inside of these vesicles. The vesicles can be separated by rapidly filtrating of the membrane suspension through a glass filter or through a nitrocellulose membrane (using vacuum).
as §2
Measurement of the vesicular transport activity in case of ABCG2: More closely, as examples, inside-out membrane vesicles were incubated in the presence or absence of 4 mM ATP. […] The transport was stopped by addition of cold wash buffer (40 mM MOPS-Tris (pH 7.0), 70 mM KCl).
The transport was stopped by addition of cold wash buffer (10 mM Tris-HCl, pH 7.4; 250 mM sucrose and 100 mM NaCl).
For estrone-3-sulfate vesicular transport 10 mM Tris-HCl, (pH 7.4), 250 mM sucrose, and 10 mM MgCl2 containing buffer were incubated at 32° C. for 1 min. The transport was stopped by addition of cold wash buffer (10 mM Tris-HCl, pH 7.4; 250 mM sucrose and 100 mM NaCl).
The incubation mix was then rapidly filtered through class B glass fiber filters (pore size, 0.1 μm). Filters were washed with 5×200 μl of ice cold wash buffer and radioactivity retained on the filter was measured by liquid scintillation counting. ATP-dependent transport was calculated by subtracting the values obtained in the absence of ATP from those in the presence of ATP.
Exemplary Assay Design and Main Steps for ABCG2 • Prepare an appropriate concentration of membrane suspension in assay buffer; add the unlabeled and ^3H-labeled substrates to the suspension.

wild-type ABCG2 [2] = biological target: T2, wild-type ABCG2; settings: 2 min
Procedure: Following UV-irradiation, gel-electrophoresis and electroblotting, the labeled bands were visualized by Phospho-Imager.
Isolated Sf9 cell membranes, containing the same amount of wild-type ABCG2 protein were loaded with cholesterol by preincubation with 4 mM C-CD, as described in the Methods. Cholesterol-loaded membrane vesicles contained 50 μg cholesterol/mg membrane protein, while the control membranes contained 8 μg cholesterol/mg membrane protein.

R482G-ABCG2 = biological target: T3, R482G-ABCG2 (Homo sapiens, UniProt Q9UNQ0, R482G); assay: Vesicular MTX transport, Sf9 vesicles with R482G variant; type: biochemical; settings: control and cholesterol-loaded Sf9 membrane vesicles
T3 construct: made in house; host or cells: Sf9 cells infected with recombinant baculovirus
T3 sequence (Q9UNQ0 1-655 R482G): T2 sequence (Q9UNQ0 1-655) with R482G
Procedure: MTX uptake was measured at 100 μM MTX concentration for 5 min at 37° C. in membrane vesicles containing the human wild-type ABCG2 (WT), or R482G-ABCG2 (G) transporter.
MTX and ESG uptake was measured for 5 min at 37° C. at 5 mM ATP in membrane vesicles containing the human wild-type ABCG2 (WT), or R482G-ABCG2 (G) transporter. […] The mean values±SD are presented.
Vesicular transport studies: In these experiments we carried out direct, ATP-dependent substrate transport measurements by using isolated inside-out membrane vesicles of ABCG2-expressing Sf9 cells.

ABCG2-R482T = biological target: T4, ABCG2-R482T (Homo sapiens, UniProt Q9UNQ0, R482T); assay: Vesicular MTX transport, Sf9 vesicles with R482T variant; type: biochemical; settings: irrespective of the membrane cholesterol content
T4 construct: made in house; host or cells: Sf9 cells infected with recombinant baculovirus
T4 sequence (Q9UNQ0 1-655 R482T): T2 sequence (Q9UNQ0 1-655) with R482T

Sequence of humanBSEP (O95342 whole entry): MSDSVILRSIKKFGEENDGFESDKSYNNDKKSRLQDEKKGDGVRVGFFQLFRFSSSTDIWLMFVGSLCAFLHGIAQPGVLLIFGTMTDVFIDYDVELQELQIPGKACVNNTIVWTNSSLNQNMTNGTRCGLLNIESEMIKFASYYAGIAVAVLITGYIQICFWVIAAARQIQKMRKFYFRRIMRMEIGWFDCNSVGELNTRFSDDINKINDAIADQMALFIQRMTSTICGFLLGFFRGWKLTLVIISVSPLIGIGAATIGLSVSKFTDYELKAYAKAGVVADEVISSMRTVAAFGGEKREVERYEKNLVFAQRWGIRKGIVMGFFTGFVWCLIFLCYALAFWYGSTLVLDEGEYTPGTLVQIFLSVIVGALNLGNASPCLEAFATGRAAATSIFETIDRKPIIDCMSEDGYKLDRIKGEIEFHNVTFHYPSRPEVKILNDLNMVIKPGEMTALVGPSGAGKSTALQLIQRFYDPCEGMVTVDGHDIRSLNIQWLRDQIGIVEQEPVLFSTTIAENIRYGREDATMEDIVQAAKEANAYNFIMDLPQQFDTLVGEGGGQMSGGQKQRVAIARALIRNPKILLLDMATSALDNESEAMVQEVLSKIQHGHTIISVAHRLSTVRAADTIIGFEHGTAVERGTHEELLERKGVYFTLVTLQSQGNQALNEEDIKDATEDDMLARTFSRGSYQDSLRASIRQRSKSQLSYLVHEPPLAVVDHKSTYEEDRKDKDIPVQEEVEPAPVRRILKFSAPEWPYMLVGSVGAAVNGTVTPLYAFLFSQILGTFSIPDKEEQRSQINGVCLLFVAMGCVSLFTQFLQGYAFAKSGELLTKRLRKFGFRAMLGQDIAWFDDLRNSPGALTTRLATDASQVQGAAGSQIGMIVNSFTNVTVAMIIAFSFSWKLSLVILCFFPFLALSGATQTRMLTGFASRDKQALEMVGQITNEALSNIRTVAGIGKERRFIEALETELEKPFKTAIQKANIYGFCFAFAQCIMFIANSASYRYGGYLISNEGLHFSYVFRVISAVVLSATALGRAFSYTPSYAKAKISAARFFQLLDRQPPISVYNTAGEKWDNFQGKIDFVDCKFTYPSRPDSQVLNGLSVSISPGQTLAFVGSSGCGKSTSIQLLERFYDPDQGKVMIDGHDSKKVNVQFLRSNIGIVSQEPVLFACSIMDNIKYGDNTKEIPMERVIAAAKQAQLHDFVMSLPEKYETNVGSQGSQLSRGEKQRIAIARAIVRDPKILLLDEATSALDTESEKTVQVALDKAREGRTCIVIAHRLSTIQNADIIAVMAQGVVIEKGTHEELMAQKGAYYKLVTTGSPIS

Structure (SMILES): C[C@H](CCC(=O)NCCS(=O)(=O)O)[C@H]1CC[C@H]2[C@@H]3[C@H](O)C[C@@H]4C[C@H](O)CC[C@]4(C)[C@H]3C[C@H](O)[C@]12C [TC, Taurocholic acid]
- VMAX of taurocholate transport (humanBSEP; humanBSEP-Sf9 + Chol): 323 pmol TC/mg prot/min
- VMAX of taurocholate transport (humanBSEP; humanBSEP-Sf9 CTRL): 169.4 pmol TC/mg prot/min
- VMAX of taurocholate transport (mouseBsep; mouseBsep-Sf9 + Chol): 1843 pmol TC/mg prot/min
- VMAX of taurocholate transport (mouseBsep; mouseBsep-Sf9 CTRL): 1199 pmol TC/mg prot/min
- VMAX of taurocholate transport (ratBsep; ratBsep-Sf9 + Chol): 121.3 pmol TC/mg prot/min
- VMAX of taurocholate transport (ratBsep; ratBsep-Sf9 CTRL): 14.54 pmol TC/mg prot/min

Structure (SMILES): CC(C)CCC[C@@H](C)[C@H]1CC[C@H]2[C@@H]3CC=C4C[C@@H](O)CC[C@]4(C)[C@H]3CC[C@]12C [cholesterol]
- Increase of maximum transport rate of ABCG2 by increasing membrane cholesterol levels (wild-type ABCG2 [1]; human): up to 20 fold
- mean relative value of ABCG2 labeling (basic level of nucleotide trapping) after cholesterol loading (wild-type ABCG2 [2]): 105%

Structure (SMILES): CN(Cc1cnc2nc(N)nc(N)c2n1)c1ccc(C(=O)N[C@@H](CCC(=O)O)C(=O)O)cc1 [methotrexate]
- Increase of Vmax of vesicular transport by cholesterol loading (wild-type ABCG2 [1]): six-fold
- MTX transport (in words) (R482G-ABCG2): very low
- MTX transport rate (ABCG2-R482T): below 50 pmoles/mg membrane protein/min
